Measurements from patent publication US10139410B2, “Protein-protein interaction as biomarkers” (H. LEE MOFFITT CANCER CENTER AND RESEARCH INSTITUTE, INC., priority 2011, dated 2018).

What was measured:
[1] = tested on: EGFR-GRB2 interactions; design: species or system nude mice; conditions: mouse, in vivo
Description: 5. […] Record start time • b. Incubation time should be 16-18 h

[2] = tested on: EGFR-GRB2; assay type: in vivo, mice; conditions: H1650 (EGFR mutant) or H322 (EGFR wildtype) xenografts, with or without erlotinib, 18 days
Description: (§1) Tumor xenografts were established in mice with either H1650 (EGFR mutant) or H322 (EGFR wildtype), treated with or without erlotinib and allowed to grow for 18 days. Formalin-fixed, paraffin-embedded tumor tissue was analyzed by PLA for the interaction of EGFR-GRB2 (left) and EGFR-SHC1 (right). Nuclei are shown in blue, PLA signal is red and cytokeratin is green. For clarity, identical images are shown with and without cytokeratin staining for each tumor.
(§2) Tumor tissues from subcutaneous mouse models of lung cancer will be used. […] Mice have been selected for these experiments since they are most suitable for xenograft and […] studies of lung cancer, are readily available and not endangered, and can be safely maintained in the laboratory animal vivarium. CD-1 nu/nu mice mice will be purchased from approved vendors and housed in institutional animal facilities according to protocols set out by the American Association for Accreditation of Laboratory Animal Care. The inventor currently has active IACUC protocol for establishing subcutaneous tumor xenografts in mice. Both male and female mice of approximately six weeks of age will be used. Mice will be anesthetized in an induction chamber containing 3% isoflurane and 97% oxygen.

[3] = tested on: EGFR-SHC1; assay type: in vivo, mice; conditions: H1650 (EGFR mutant) or H322 (EGFR wildtype) xenografts, with or without erlotinib, 18 days
Description: as §1, §2

[4] = tested on: phosphor-EGFRY1068; experiment: PLA for phosphorylated EGFR in cell lines (single antibody to phospho-EGFR Y1068); assay type: cell-based, human; conditions: PC9 cells, 3 hours of treatment
Description: 9. […] Record start time • b. Incubation time should be 16-18 h
11. […] Ensure complete coverage of tissue area.

[5] = tested on: EGFR binding of Grb2, Mig6, Sts1; experiment: Affinity purification mass spectrometry (AP-MS) of EGFR interactions; assay type: cell-based, human; conditions: cells treated with erlotinib; data not shown
Description: The present inventors have initiated a system wide and global analysis of the PPI driven by hyperactivated epidermal growth factor receptor (EGFR) resulting from somatic mutation in non-small cell lung cancer (NSCLC) (17-19). The inventors' approach has been to combine (i) affinity purification—mass spectrometry (AP-MS) and (ii) phosphotyrosine proteomics. The inventors use cell models that harbor mutant EGFR proteins and are highly sensitive to EGFR TKI. As the network of EGFR is highly dependent on cell context, this approach offers the best chance of recovering pertinent proteins and mechanisms, a potential flaw in using cells other than lung cancer cells driven by mutant EGFR. Tagged versions of EGFR are initially used to identify interactions and second round of AP-MS is performed to more fully construct the network (20, 21). The inventors simultaneously performed tyrosine phosphoproteomics—tyrosine phosphorylated (pTyr) peptides are enriched using an anti-phosphotyrosine antibody and then identified and quantified on an Orbitrap mass spectrometer using published methods (9). […]
EGFR inhibitors are predicted to disrupt signaling complexes on the EGFR protein. […] Changes in EGFR PPI will be determined using PLA on these tumor samples. Measurements of EGFR PPI using PLA will be analyzed from the pre-treatment sample and again on the post-treatment sample.

[6] = tested on: lung cancer cell lines; experiment: Sensitivity of lung cancer cell lines to EGFR TKI; assay type: cell-based, human
[7] = tested on: EGFR; assay type: cell-based, human

C#Cc1cccc(Nc2ncnc3cc(OCCOC)c(OCCOC)cc23)c1 [erlotinib]
EGFR-GRB2 PLA signal in tumor [1]: considerably reduced
proteins in complex with EGFR (PLA) [1]: reductions in proteins in complex with EGFR
EGFR-GRB2 PLA signal in tumor tissue [2]: markedly reduced
EGFR-SHC1 PLA signal in tumor tissue [3]: markedly reduced
phosphorylation of EGFR by PLA (pEGFR Y1068), confirmed by immunoblot [4]: abolishes
EGFR binding partners by mass spectrometry [5]: no longer bound Grb2, Mig6 or Sts1
sensitivity to EGFR TKI (erlotinib) ([6]; A549, H23 and H460 cells): resistant
erlotinib sensitivity ([6]; H322 and H1648 cells): some degree of erlotinib sensitivity
sensitivity to EGFR TKI (erlotinib) ([6]; H1648, H322, H358 and H292 cells, wildtype EGFR): some degree of sensitivity
EGFR tyrosine phosphorylation [7]: inhibits
